Laboratory results published in the NIST ThermoML archive (doi:10.1021/je060271a).
“And” between values parts separate entries of the source, which are not always exact repeats. Equal entries are not always repeated.

Conditions: 303.15 K, Liquid, Vibrating tube method

CCCCCC(=O)OCC(COC(=O)CCCCC)(COC(=O)CCCCC)COC(=O)CCCCC [pentaerythritol tetrahexanoate]
Conditions	mass density
12760 kPa	996.5 kg/m3
12780 kPa	996.4 kg/m3
12799 kPa	996.4 kg/m3
12822 kPa	996.5 kg/m3
12861 kPa	996.4 kg/m3
12903 kPa	996.4 kg/m3
12922 kPa	996.5 kg/m3
12946 kPa	996.6 kg/m3
12965 kPa	996.4 kg/m3
12985 kPa	996.5 kg/m3
13005 kPa	996.5 kg/m3
13307 kPa	996.6 kg/m3
13327 kPa	996.7 kg/m3
13352 kPa	996.8 kg/m3
13373 kPa	996.7 kg/m3
13394 kPa	996.7 kg/m3
13419 kPa	996.7 kg/m3
13439 kPa	996.8 kg/m3
13465 kPa	996.9 kg/m3
13486 kPa	996.8 kg/m3
13507 kPa	996.8 kg/m3
13533 kPa	996.8 kg/m3
13554 kPa	996.8 kg/m3
13576 kPa	996.7 kg/m3
13598 kPa	996.9 kg/m3
13624 kPa	996.9 kg/m3
13645 kPa	996.9 kg/m3
13671 kPa	997 kg/m3
13693 kPa	996.8 kg/m3
13715 kPa	996.9 kg/m3
13737 kPa	997 kg/m3
13763 kPa	997 kg/m3
13786 kPa	997 kg/m3
13808 kPa	997 kg/m3
13835 kPa	996.9 kg/m3
13857 kPa	997.1 kg/m3
13880 kPa	997 kg/m3
13902 kPa	997 kg/m3
13929 kPa	997 kg/m3
13952 kPa	997.1 kg/m3
13975 kPa	997.1 kg/m3
14002 kPa	997.2 kg/m3
14025 kPa	997 kg/m3
14052 kPa	997.1 kg/m3
14098 kPa	997.1 kg/m3
14126 kPa	997.1 kg/m3
14149 kPa	997.1 kg/m3
14174 kPa	997.2 kg/m3
14198 kPa	997.1 kg/m3
14222 kPa	997.2 kg/m3
14250 kPa	997.2 kg/m3
14273 kPa	997.2 kg/m3
14301 kPa	997.2 kg/m3
14324 kPa	997.3 kg/m3
14348 kPa	997.3 kg/m3
14371 kPa	997.4 kg/m3
14400 kPa	997.4 kg/m3
14423 kPa	997.3 kg/m3
14447 kPa	997.4 kg/m3
14476 kPa	997.4 kg/m3
14499 kPa	997.4 kg/m3
14522 kPa	997.3 kg/m3
14545 kPa	997.5 kg/m3
14569 kPa	997.4 kg/m3
14596 kPa	997.5 kg/m3
14620 kPa	997.5 kg/m3
14643 kPa	997.6 kg/m3
14671 kPa	997.4 kg/m3
14695 kPa	997.4 kg/m3
14722 kPa	997.4 kg/m3
14746 kPa	997.6 kg/m3
14770 kPa	997.6 kg/m3
14798 kPa	997.6 kg/m3
14823 kPa	997.5 kg/m3
14847 kPa	997.5 kg/m3
14871 kPa	997.6 kg/m3
14900 kPa	997.6 kg/m3
15031 kPa	997.7 kg/m3
15056 kPa	997.7 kg/m3
15080 kPa	997.7 kg/m3
15110 kPa	997.8 kg/m3
15293 kPa	997.8 kg/m3
15647 kPa	998.1 kg/m3
15670 kPa	998.2 kg/m3
15694 kPa	998.1 kg/m3
15716 kPa	998 kg/m3
15743 kPa	998.1 kg/m3
15766 kPa	998.1 kg/m3
15789 kPa	998 kg/m3
15816 kPa	998.1 kg/m3
15838 kPa	998.2 kg/m3
15888 kPa	998.2 kg/m3
15911 kPa	998.2 kg/m3
15933 kPa	998.3 kg/m3
15961 kPa	998.4 kg/m3
15983 kPa	998.3 kg/m3
16011 kPa	998.3 kg/m3
16034 kPa	998.3 kg/m3
16056 kPa	998.4 kg/m3
16083 kPa	998.3 kg/m3
16106 kPa	998.4 kg/m3
16127 kPa	998.2 kg/m3
16149 kPa	998.4 kg/m3
16175 kPa	998.4 kg/m3
16197 kPa	998.3 kg/m3
16218 kPa	998.4 kg/m3
16244 kPa	998.5 kg/m3
16266 kPa	998.4 kg/m3
16288 kPa	998.4 kg/m3
16313 kPa	998.4 kg/m3
16335 kPa	998.5 kg/m3
16357 kPa	998.5 kg/m3
16384 kPa	998.5 kg/m3
16406 kPa	998.7 kg/m3
16427 kPa	998.5 kg/m3
16447 kPa	998.5 kg/m3
16471 kPa	998.6 kg/m3
16491 kPa	998.5 kg/m3
16512 kPa	998.6 kg/m3
16532 kPa	998.5 kg/m3
16557 kPa	998.7 kg/m3
16578 kPa	998.7 kg/m3
16599 kPa	998.5 kg/m3
16624 kPa	998.6 kg/m3
16644 kPa	998.7 kg/m3
16666 kPa	998.7 kg/m3
16687 kPa	998.7 kg/m3
16708 kPa	998.5 kg/m3
16732 kPa	998.7 kg/m3
16752 kPa	998.7 kg/m3
16772 kPa	998.7 kg/m3
16796 kPa	998.7 kg/m3
16840 kPa	998.8 kg/m3
16860 kPa	998.9 kg/m3
16880 kPa	998.8 kg/m3
16904 kPa	998.8 kg/m3
16924 kPa	998.8 kg/m3
16945 kPa	998.9 kg/m3
16966 kPa	998.9 kg/m3
16990 kPa	998.8 kg/m3
17010 kPa	998.9 kg/m3
17035 kPa	999 kg/m3
17056 kPa	999 kg/m3
17077 kPa	999 kg/m3
17098 kPa	999 kg/m3
17124 kPa	999 kg/m3
17144 kPa	998.9 kg/m3
17164 kPa	998.9 kg/m3
17186 kPa	998.9 kg/m3
17201 kPa	998.9 kg/m3
17216 kPa	998.9 kg/m3
17229 kPa	999.1 kg/m3
17243 kPa	999 kg/m3
17245 kPa	999 kg/m3
17247 kPa	999.1 kg/m3
17248 kPa	999.1 kg/m3
17250 kPa	999.1 kg/m3
17251 kPa	999 kg/m3
17252 kPa	999 kg/m3
17253 kPa	999 kg/m3
17254 kPa	999.1 kg/m3
17256 kPa	999 kg/m3
17265 kPa	999 kg/m3
17267 kPa	999.1 kg/m3
17272 kPa	999 kg/m3
17282 kPa	999 kg/m3
17286 kPa	999 kg/m3
17289 kPa	999 kg/m3
17290 kPa	998.9 kg/m3 and 999 kg/m3
17296 kPa	999.1 kg/m3
17310 kPa	999.2 kg/m3
17330 kPa	999.1 kg/m3
17334 kPa	999.1 kg/m3
17348 kPa	999.1 kg/m3
17353 kPa	999 kg/m3
17354 kPa	999.2 kg/m3
17377 kPa	999.2 kg/m3
17400 kPa	999.1 kg/m3
17428 kPa	999.2 kg/m3
17452 kPa	999.1 kg/m3
17475 kPa	999.3 kg/m3
17503 kPa	999.1 kg/m3
17526 kPa	999.1 kg/m3
17550 kPa	999.3 kg/m3
17577 kPa	999.3 kg/m3
17917 kPa	999.3 kg/m3
17939 kPa	999.5 kg/m3
17961 kPa	999.4 kg/m3
17988 kPa	999.5 kg/m3
18010 kPa	999.4 kg/m3
18037 kPa	999.5 kg/m3
18060 kPa	999.6 kg/m3
18083 kPa	999.5 kg/m3
18105 kPa	999.5 kg/m3
18132 kPa	999.4 kg/m3
18155 kPa	999.6 kg/m3
18178 kPa	999.7 kg/m3
18205 kPa	999.6 kg/m3
18228 kPa	999.6 kg/m3
18256 kPa	999.6 kg/m3
18279 kPa	999.6 kg/m3
18302 kPa	999.6 kg/m3
18325 kPa	999.7 kg/m3
18353 kPa	999.6 kg/m3
18377 kPa	999.8 kg/m3
18400 kPa	999.7 kg/m3
18428 kPa	999.7 kg/m3
18452 kPa	999.6 kg/m3
18476 kPa	999.8 kg/m3
18504 kPa	999.8 kg/m3
18528 kPa	999.8 kg/m3
18551 kPa	999.7 kg/m3
18580 kPa	999.9 kg/m3
18604 kPa	1000 kg/m3
18628 kPa	1000 kg/m3
18657 kPa	999.8 kg/m3
18917 kPa	1000 kg/m3
18943 kPa	1000 kg/m3
18968 kPa	999.9 kg/m3
18998 kPa	1000 kg/m3
19024 kPa	1000 kg/m3
19049 kPa	1000.2 kg/m3
19074 kPa	1000 kg/m3
19104 kPa	1000.1 kg/m3
19128 kPa	1000 kg/m3
19154 kPa	1000.1 kg/m3
19177 kPa	1000.1 kg/m3
19199 kPa	1000.2 kg/m3
19226 kPa	1000.2 kg/m3
19249 kPa	1000.3 kg/m3
19273 kPa	1000.2 kg/m3
19296 kPa	1000.3 kg/m3
19323 kPa	1000.1 kg/m3
19346 kPa	1000.2 kg/m3
19374 kPa	1000.3 kg/m3
19397 kPa	1000.3 kg/m3
19420 kPa	1000.3 kg/m3
19443 kPa	1000.3 kg/m3
19471 kPa	1000.3 kg/m3
19495 kPa	1000.2 kg/m3
19518 kPa	1000.3 kg/m3
19546 kPa	1000.4 kg/m3
19570 kPa	1000.4 kg/m3
19595 kPa	1000.3 kg/m3
19618 kPa	1000.4 kg/m3
19642 kPa	1000.4 kg/m3
19670 kPa	1000.4 kg/m3
19694 kPa	1000.4 kg/m3
19718 kPa	1000.6 kg/m3
19747 kPa	1000.4 kg/m3
19771 kPa	1000.5 kg/m3
19795 kPa	1000.5 kg/m3
19824 kPa	1000.4 kg/m3
19849 kPa	1000.5 kg/m3
19873 kPa	1000.6 kg/m3
19904 kPa	1000.6 kg/m3
19928 kPa	1000.6 kg/m3
19952 kPa	1000.6 kg/m3
19977 kPa	1000.5 kg/m3
20006 kPa	1000.7 kg/m3
20031 kPa	1000.6 kg/m3
20056 kPa	1000.7 kg/m3
20081 kPa	1000.6 kg/m3
20111 kPa	1000.7 kg/m3
20136 kPa	1000.8 kg/m3
20162 kPa	1000.8 kg/m3
20192 kPa	1000.7 kg/m3
20217 kPa	1000.9 kg/m3
20248 kPa	1000.8 kg/m3
20274 kPa	1000.8 kg/m3
20299 kPa	1000.9 kg/m3
20324 kPa	1000.8 kg/m3
20350 kPa	1000.8 kg/m3
20381 kPa	1000.8 kg/m3
20406 kPa	1000.9 kg/m3
20432 kPa	1000.9 kg/m3
20463 kPa	1000.9 kg/m3
20489 kPa	1000.9 kg/m3
20515 kPa	1000.8 kg/m3
20547 kPa	1000.9 kg/m3
20573 kPa	1001 kg/m3
20600 kPa	1000.9 kg/m3
20627 kPa	1001 kg/m3
20658 kPa	1001 kg/m3
20685 kPa	1001.1 kg/m3
20716 kPa	1001 kg/m3
20743 kPa	1001 kg/m3
20770 kPa	1001 kg/m3
20797 kPa	1001 kg/m3
20829 kPa	1001 kg/m3
